Results from patent publication US20210270813A1, “KIT, METHOD FOR SCREENING AN ACTIVE COMPOUND IN VITRO AND USES OF A KIT” (L'OREAL, priority 2018, published 2021).

Test system: neurites emerging from the neurospheres
Assay: Maximum extension of neurites emerging from neurospheres in modified co-culture microdevice
Type: cell-based, human
Settings: NGF added or not to the matrigel in the middle punched hole; 3N medium or 75% CM plus HEKn; FIG. 14C
Description: Keratinocytes moved faster than the dendrites and since removing the microdevice sometimes meant that neurospheres were pulled from the substrate, a hole between the wells of the same pair was punched and the keratinocytes were placed within this hole (FIG. 13A, red arrow). The region where there was a predominance of migrating neurites was observed and the highest migration radius was measured (FIG. 13B, blue arrow).
To further test this modified co-culture microdevice, the culture media (3N versus 75% CM from HEKn) and the presence (or not) of matrigel in the middle hole were compared by measuring the maximum extension of the neurites emerging from the neurospheres (FIG. 14A). There were no statistically significant differences. Then, the extension of neurites in the presence or absence of keratinocytes in the hole were compared. Again, no differences were observed (FIG. 14B). Finally, another variable was tested: adding NGF or not to the matrigel in the middle punched hole.

## nerve growth factor [NGF]
  maximum extension of the neurites (neurite migration): trend of NGF to increase migration
